Consider 34 molecules from ChEMBL document CHEMBL5042526, “Design, Synthesis, and Biological Evaluation of Triazolone Derivatives as Potent PPARα/δ Dual Agonists for the Treatment of Nonalcoholic Steatohepatitis” (J Med Chem, 2022).

The target of data set [1] is T1, Peroxisome proliferator-activated receptor gamma (Homo sapiens, UniProt P37231).
T1 sequence (P37231 whole entry): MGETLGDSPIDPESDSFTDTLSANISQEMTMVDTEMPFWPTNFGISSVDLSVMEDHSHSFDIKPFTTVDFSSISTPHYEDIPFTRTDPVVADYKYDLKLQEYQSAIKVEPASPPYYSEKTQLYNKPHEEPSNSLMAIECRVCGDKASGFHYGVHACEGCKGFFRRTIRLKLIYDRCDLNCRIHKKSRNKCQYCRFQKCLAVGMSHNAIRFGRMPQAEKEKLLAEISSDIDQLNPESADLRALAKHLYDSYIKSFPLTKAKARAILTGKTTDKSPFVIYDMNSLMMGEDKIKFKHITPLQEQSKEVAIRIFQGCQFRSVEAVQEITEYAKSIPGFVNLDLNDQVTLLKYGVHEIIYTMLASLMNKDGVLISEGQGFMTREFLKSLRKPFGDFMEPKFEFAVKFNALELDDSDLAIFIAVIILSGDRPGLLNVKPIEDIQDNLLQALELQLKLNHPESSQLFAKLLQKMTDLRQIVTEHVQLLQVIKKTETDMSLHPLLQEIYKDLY
The experiment in a line: Agonist activity at PPARgamma (unknown origin).

In data set [2] the target is T2, Peroxisome proliferator-activated receptor delta (Homo sapiens) (UniProt Q03181).
T2 sequence (whole entry): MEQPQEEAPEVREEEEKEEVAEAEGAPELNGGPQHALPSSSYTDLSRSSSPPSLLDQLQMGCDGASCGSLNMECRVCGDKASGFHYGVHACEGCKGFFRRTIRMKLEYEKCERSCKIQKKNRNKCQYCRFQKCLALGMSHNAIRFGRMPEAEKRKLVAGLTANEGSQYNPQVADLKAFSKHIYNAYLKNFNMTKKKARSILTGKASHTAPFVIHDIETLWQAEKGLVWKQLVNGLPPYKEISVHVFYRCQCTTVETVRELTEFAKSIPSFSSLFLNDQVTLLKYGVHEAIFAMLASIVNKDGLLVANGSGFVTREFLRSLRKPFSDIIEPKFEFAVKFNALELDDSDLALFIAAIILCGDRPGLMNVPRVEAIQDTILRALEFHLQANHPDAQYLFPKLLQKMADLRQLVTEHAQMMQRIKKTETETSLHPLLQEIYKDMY
The note with it: filed as agonist, dose 10.0 nM.

Data set [3] has as its target T3, Peroxisome proliferator-activated receptor gamma (Homo sapiens) (UniProt P37231).
T3 sequence (whole entry): T1 sequence (P37231 whole entry)
The note with it: filed as agonist, dose 10.0 nM.

Data set [4] deals with T4, Peroxisome proliferator-activated receptor alpha (Homo sapiens) (UniProt Q07869).
T4 sequence (whole entry): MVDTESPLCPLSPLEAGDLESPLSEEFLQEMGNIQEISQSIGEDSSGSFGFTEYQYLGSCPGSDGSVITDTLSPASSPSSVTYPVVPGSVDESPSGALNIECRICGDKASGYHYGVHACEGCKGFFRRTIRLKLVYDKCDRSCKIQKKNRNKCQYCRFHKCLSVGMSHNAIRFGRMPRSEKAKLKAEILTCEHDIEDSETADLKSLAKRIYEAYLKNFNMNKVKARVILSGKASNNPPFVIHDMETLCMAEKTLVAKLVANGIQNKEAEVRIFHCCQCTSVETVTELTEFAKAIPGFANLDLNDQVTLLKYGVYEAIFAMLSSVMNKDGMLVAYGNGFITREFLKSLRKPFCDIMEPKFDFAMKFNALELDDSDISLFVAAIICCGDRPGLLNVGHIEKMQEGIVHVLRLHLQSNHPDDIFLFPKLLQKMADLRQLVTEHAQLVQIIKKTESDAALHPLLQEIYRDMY
The note with it: filed as agonist, dose 10.0 nM.
Description: Agonist activity at PPARalpha (unknown origin) assessed as maximal activation at 10 nM relative to GW7647

Data set [5] addresses T5, Peroxisome proliferator-activated receptor alpha (Homo sapiens, UniProt Q07869).
T5 sequence (Q07869 whole entry): T4 sequence (whole entry)
In words: Agonist activity at PPARalpha (unknown origin).

Data set [6] in a line: Microsomal stability in human liver microsomes assessed as terminal elimination half life at 1 uM measured upto 60 mins by LC-MS/MS-11 analysis. Format: ADME, Microsome. On the technique in general: Microsomes from liver hold many membrane-bound enzymes, among them those of drug oxidation.
For data set [7], the target named is T6, Peroxisome proliferator-activated receptor delta (Homo sapiens, UniProt Q03181).
T6 sequence (Q03181 whole entry): T2 sequence (whole entry)
The experiment in a line: Agonist activity at PPARdelta (unknown origin).

A short description of data set [8]: Intrinsic clearance in human liver microsomes at 1 uM measured upto 60 mins by LC-MS/MS-11 analysis. The note with it: read-out: CLH. Type of data set: ADME, Microsome.
The target of data set [9] is T3, Peroxisome proliferator-activated receptor gamma (Homo sapiens). In words: Agonist activity at PPARgamma (unknown origin) assessed as maximal activation at 10 nM relative to control. The note with it: filed as agonist.
Data set [10] addresses T2, Peroxisome proliferator-activated receptor delta (Homo sapiens). In words: Agonist activity at PPARdelta (unknown origin) assessed as maximal activation at 10 nM relative to control. The note with it: filed as agonist.
Data set [11] concerns the target T4, Peroxisome proliferator-activated receptor alpha (Homo sapiens). In words: Agonist activity at PPARalpha (unknown origin) assessed as maximal activation at 10 nM relative to control. The note with it: filed as agonist.

For orientation: EC50 means the concentration at which the effect is half-maximal. Turning to `CCc1cc(Cn2ncn(-c3ccc(OC(F)(F)F)cc3)c2=O)cc(CC)c1OC(C)(C)C(=O)O`, the 50% effective concentration (EC50) in [1] amounted to 3090 nM; in [5] it was 44.4 nM. The Emax was 74% in [2], 125% in data set [3] and 129% in [4].
In the case of `COc1ccc(-n2cnn(Cc3cc(C)c(OC(C)(C)C(=O)O)c(C)c3)c2=O)cc1`, the Emax in [2] amounted to 107%; in [3] it was 114%; in data set [4], 120%.
Molecule `CC(C)(Oc1c(F)cc(Cn2ncn(-c3ccc(OC(F)(F)F)cc3)c2=O)cc1F)C(=O)O` yielded a half-maximal effective concentration (EC50) in [1] of over 5000 nM. Also, the figures for the Emax in [2] and in data set [4] were 113% and 99%, respectively.
As to `Cc1cc(Cn2ncn(-c3ccc(Cl)cc3)c2=O)cc(C)c1OC(C)(C)C(=O)O`, the figures for the Emax in data set [2], in data set [3] and in data set [4] were 114%, 180% and 126%, respectively.
On to `Cc1cc(OCn2ncn(-c3ccc(C(F)(F)F)cc3)c2=O)cc(C)c1OC(C)(C)C(=O)O`, for which, in data set [1], the EC50 was over 5000 nM. The figures for the Emax in data set [2] and in data set [4] were 72% and 69%, respectively.
In the same order, the values of `Cc1cc(CCCn2ncn(-c3ccc(C(F)(F)F)cc3)c2=O)cc(C)c1OC(C)(C)C(=O)O` are over 5000 nM, 72% and 78%.
As usually defined, the half-life is the time needed for the level to fall by half in the phase considered. Consider `Cc1cc(Cn2ncn(-c3ccc(C(F)(F)F)cc3)c2=O)cc(C(F)(F)F)c1OC(C)(C)C(=O)O`, for which the half-life at 1 µM in data set [6] is over 2 h. The molecule further showed an EC50 in data set [7] of 1.4 nM. Moreover, the CLint scaled at 1 µM in data set [8] amounted to 2.7 mL/min/kg.
For `CCc1ccc(-n2cnn(Cc3cc(C)c(OC(C)(C)C(=O)O)c(C)c3)c2=O)cc1`, the Emax in data set [2] was found to be 99%; in data set [3], 149%; in [4] it was 98%. Besides, the half-life at 1 µM in data set [6] is over 2 h. The CLint scaled at 1 µM in data set [8] is 4.68 mL/min/kg. For the same molecule, in data set [5], the concentration giving a half-maximal response (EC50) was found to be 14.2 nM.
As for `CC(C)(Oc1ccc(Cn2ncn(-c3ccc(OC(F)(F)F)cc3)c2=O)cc1Cl)C(=O)O`, the Emax in data set [2] came out at 95%; in [3], 67%; in [4] it was 111%.
In the same order, the values of `CC(C)(Oc1ccc(Cn2ncn(-c3ccc(OC(F)(F)F)cc3)c2=O)cc1OC(F)(F)F)C(=O)O` are 160%, 70% and 130%.
On to `Cc1cc(Cn2ncn(-c3ccc(C(F)(F)F)cc3)c2=O)cc(Cl)c1OC(C)(C)C(=O)O`, for which the Emax was found to be 81% in [2], 76% in data set [3] and 162% in data set [4]. Moreover, in [6], the half-life at 1 µM was over 2 h. Besides, the EC50 in data set [7] is 14.7 nM; in data set [5], 8.6 nM. Also, the CLint scaled at 1 µM in data set [8] was found to be 3.96 mL/min/kg.
For `CC(C)(Oc1ccc(Cn2ncn(-c3ccc(OC(F)(F)F)cc3)c2=O)cc1)C(=O)O`, the EC50 in [1] was over 5000 nM. Also, the Emax in data set [2] was determined as 71%; in data set [4], 109%.
For `CC(C)(Oc1ccc(Cn2ncn(-c3ccc(C(F)(F)F)cc3)c2=O)cc1Cl)C(=O)O`, the Emax was determined as 97% in [2], 99% in data set [3] and 150% in [4].
For `Cc1cc(Cn2ncn(-c3ccc(C(F)(F)F)cc3)c2=O)cc(C)c1OC(C)(C)C(=O)O`, the half-life at 1 µM in data set [6] is over 2 h. The concentration giving a half-maximal response (EC50) in data set [7] was determined as 1.7 nM. In data set [8], the CLint scaled at 1 µM stood at 3.6 mL/min/kg.
For `CC(C)(Oc1ccc(Cn2ncn(-c3ccc(OC(F)(F)F)cc3)c2=O)cc1F)C(=O)O`, the EC50 in data set [1] is over 5000 nM. Moreover, the Emax amounted to 105% in [2] and 102% in data set [4].
Regarding `Cc1cc(Cn2ncn(-c3ccc(OC(F)(F)F)cc3)c2=O)cc(C(F)(F)F)c1OC(C)(C)C(=O)O`, the half-life at 1 µM in data set [6] was over 2 h. Also, the EC50 in [7] was determined as 5.6 nM. In data set [8], the CLint scaled at 1 µM turned out to be 0.09 mL/min/kg.
Consider `CC(C)(Oc1c(Cl)cc(Cn2ncn(-c3ccc(C(F)(F)F)cc3)c2=O)cc1Cl)C(=O)O`, for which the half-life at 1 µM in [6] was over 2 h. Moreover, in [8], the CLint scaled at 1 µM is 10.3 mL/min/kg.
In data set [1], `CC(C)(Oc1ccc(Cn2ncn(-c3ccc(C(F)(F)F)cc3)c2=O)cc1F)C(=O)O` showed a concentration giving a half-maximal response (EC50) of over 5000 nM. The results for the Emax in data set [2] and in data set [4] were 118% and 136%, respectively.
Turning to `Cc1cc(Cn2ncn(-c3ccc(C#N)cc3)c2=O)cc(C)c1OC(C)(C)C(=O)O`, the EC50 in data set [1], in data set [7] and in [5] was over 5000 nM each time.
For the molecule `CC(C)(Oc1c(F)cc(Cn2ncn(-c3ccc(C(F)(F)F)cc3)c2=O)cc1F)C(=O)O`, the EC50 in data set [1] was over 5000 nM.
Still for that read-out and setting: the value for `CC(C)(Oc1ccc(Cn2ncn(-c3ccc(C(F)(F)F)cc3)c2=O)cc1)C(=O)O` was over 5000 nM.
As to `Cc1cc(Cn2ncn(-c3ccc(OC(F)(F)F)cc3)c2=O)cc(Cl)c1OC(C)(C)C(=O)O`, the EC50 in [1] was over 5000 nM; in [7] it was 28.5 nM; in data set [5] it was 7.6 nM. In addition, the Emax in data set [2] came out at 129%; in data set [4] it was 110%.
Regarding `Cc1cc(Cn2ncn(-c3ccc(Br)cc3)c2=O)cc(C)c1OC(C)(C)C(=O)O`, the half-life at 1 µM in [6] was over 2 h. In addition, the midpoint of the response in [7], the EC50, lay at 21.6 nM. Further, in data set [8], the CLint scaled at 1 µM was determined as 1.45 mL/min/kg.
With `Cc1cc(Cn2ncn(-c3ccc(S(C)(=O)=O)cc3)c2=O)cc(C)c1OC(C)(C)C(=O)O`, the EC50 in data set [1] and in data set [7] was over 5000 nM in each case.
`CC(C)(Oc1c(Cl)cc(Cn2ncn(-c3ccc(OC(F)(F)F)cc3)c2=O)cc1Cl)C(=O)O`: the EC50 is over 5000 nM in data set [1] and 6.8 nM in [5]. The Emax in [2] turned out to be 118%; in data set [4], 153%.
On to `Cc1ccc(-n2cnn(Cc3cc(C)c(OC(C)(C)C(=O)O)c(C)c3)c2=O)cc1`, for which the Emax in data set [2] was determined as 87%; in data set [3], 87%; in data set [4], 114%.
For `Cc1cc(Cn2ncn(-c3ccc(OC(F)(F)F)cc3)c2=O)ccc1OC(C)(C)C(=O)O`, the results for the Emax in data set [2], in [3] and in [4] were 97%, 110% and 141%, respectively.
`Cc1cc(Cn2ncn(-c3ccc(C(C)C)cc3)c2=O)cc(C)c1OC(C)(C)C(=O)O` yielded an EC50 in [5] of 7.5 nM.
In the case of `O=C(O)CCCc1cc2cc(Cl)ccc2n1S(=O)(=O)c1ccc2ncsc2c1` [LANIFIBRANOR], the EC50 was 559 nM in [1], 2960 nM in data set [7] and 3060 nM in [5]. The results for the Emax in data set [9], in data set [10] and in data set [11] were 119%, 89% and 65%, respectively.
`CCc1cc(Cn2ncn(-c3ccc(C(F)(F)F)cc3)c2=O)cc(CC)c1OC(C)(C)C(=O)O` registered an EC50 in data set [5] of 59.1 nM.
On to `Cc1cc(Cn2ncn(-c3ccccc3)c2=O)cc(C)c1OC(C)(C)C(=O)O`, for which the EC50 in [1] was found to be 865 nM.
Regarding `Cc1cc(Cn2ncn(-c3ccccc3C(F)(F)F)c2=O)cc(C)c1OC(C)(C)C(=O)O`, the EC50 is 3790 nM in data set [1], over 5000 nM in data set [7] and over 5000 nM in [5]. In addition, the Emax in data set [3] stood at 84%.
For `Cc1cc(-n2ncn(-c3ccc(C(F)(F)F)cc3)c2=O)cc(C)c1OC(C)(C)C(=O)O`, the EC50 in data set [1], in [7] and in data set [5] was over 5000 nM in each case.
With `CCOc1ccc(-n2cnn(Cc3cc(C)c(OC(C)(C)C(=O)O)c(C)c3)c2=O)cc1`, the EC50 in data set [1] was over 5000 nM; in [5], 32.6 nM. Also, the Emax came to 81% in data set [2] and 79% in data set [4].
